Experimental data taken from patent US4039540A, “3-Substituted quinoxaline-2-carboxamide-1,4-dioxides” (Pfizer Inc., priority 1975, dated 1977).
Converted amounts (≈) assume the structure as drawn. Where two headings read alike, the source gives them in different places.

How the values were obtained:
Strep. pyogenes = assay: in vivo activity in mice infected with a lethal inoculum of Strep. pyogenes; conditions: Streptococcus pyogenes, multiple dosing
Experimental: (§1) In determining the in vivo activity of the quinoxaline-1,4-dioxides of this invention, the test compound is administered to mice which have been infected by […] injection of a lethal inoculum of pathogenic bacteria. The test compound is administered using a multiple dosing regimen and using either the oral (PO) or the subcutaneous (SC) route. The inoculum of bacteria varies from about 1 to about 10 times the amount needed to kill 100% of the mice under the conditions of the test. At the end of the test, the activity of the compound is assessed by counting the number of survivors among the treated animals.
(§2) In vitro and in vivo activity of representative compounds of this invention, determined as aforesaid, are reported in the following tabulation for compounds of the formula: [drawing 12]

Strep. pyrogens = assay: in vitro antibacterial activity, two-fold serial dilution in Brain-Heart Infusion Broth (MIC); type: cell-based; conditions: overnight, anaerobic
Experimental: (§3) The broth is inoculated with bacteria and with the test quinoxaline-1,4-dioxide and then it is incubated overnight under anerobic conditions. On the next day, the test is read visually. The minimum inhibitory concentration (MIC) of test compound is the lowest concentration which prevents turbidity, i.e., which prevents growth of the microorganism.
as §2

E. coli [1] = assay: as above; type: cell-based; conditions: Escherichia coli, overnight, anaerobic
Experimental: as §3, §2

E. coli [2] = assay: in vivo activity in mice infected with a lethal inoculum of E. coli; conditions: Escherichia coli, sc, subcutaneous, multiple dosing, read-out: IN VIVO E. coli, number of survivors among the treated animals
Experimental: as §1, §2

[3] = oral, read-out: IN VIVO Strep. pyogenes, number of survivors among the treated animals, PO (data in parenthesis)
[4] = sc, subcutaneous, read-out: IN VIVO Strep. pyogenes, number of survivors among the treated animals

Compound	responders at 50 mg/kg (Strep. pyogenes; [3])	responders at 50 mg/kg (Strep. pyogenes; [4])	MIC (Strep. pyrogens)	MIC (E. coli [1])	responders at 25 mg/kg (E. coli [2])
COCCNC(=O)c1c(CS(=O)(=O)CCCOC(C)=O)[n+]([O-])c2ccccc2[n+]1[O-] [NHCH2 CH2 OCH3; SO2 CH2 CH2 CH2 OAc; H]	10%	20%	12.5 µg/mL (≈ 28.3 µM)	100 µg/mL (≈ 227 µM)	10%
CNC(=O)c1c(CS(=O)(=O)CCCN2CCCCC2)[n+]([O-])c2ccccc2[n+]1[O-] [NHCH3; drawing 23; H]	70%	100%	6.25 µg/mL (≈ 14.8 µM)	6.25 µg/mL (≈ 14.8 µM)	100%
CCN(CC)CCCNC(=O)c1c(CS(=O)(=O)CCO)[n+]([O-])c2ccccc2[n+]1[O-] [NH(CH2)3 N(Et)2; SO2 CH2 CH2 OH; H]	–	10%	200 µg/mL (≈ 454 µM)	> 200 µg/mL	50%
O=C(NCCCO)c1c(CS(=O)(=O)CCO)[n+]([O-])c2ccccc2[n+]1[O-] [NHCH2 CH2 CH2 OH; SO2 CH2 CH2 OH; H]	50%	40%	12.5 µg/mL (≈ 32.4 µM)	100 µg/mL (≈ 259 µM)	0%
CCNC(=O)c1c(CS(=O)(=O)CCCN(C)C)[n+]([O-])c2ccccc2[n+]1[O-] [NHCH2 CH3; SO2 (CH2)3 N(CH3)2; H]	100%	100%	1.56 µg/mL (≈ 3.94 µM)	12.5 µg/mL (≈ 31.5 µM)	100%
CNC(=O)c1c(CS(=O)(=O)CCCN(C)C)[n+]([O-])c2ccccc2[n+]1[O-] [NHCH3; SO2 (CH2)3 N(CH3)2; H]	–	100%	3.12 µg/mL (≈ 8.17 µM)	6.25 µg/mL (≈ 16.3 µM)	100%
CN(C)CCCS(=O)(=O)Cc1c(C(=O)N(C)C)[n+]([O-])c2ccccc2[n+]1[O-] [N(CH3)2; SO2 (CH2)3 N(CH3)2; H]	60%	100%	3.12 µg/mL (≈ 7.88 µM)	3.12 µg/mL (≈ 7.88 µM)	100%
CCNC(=O)c1c(CS(=O)(=O)CCCN2CCCCC2)[n+]([O-])c2ccccc2[n+]1[O-] [NHCH2 CH3; drawing 26; H]	90%	100%	3.12 µg/mL (≈ 7.16 µM)	12.5 µg/mL (≈ 28.6 µM)	60%
CCC(CO)NC(=O)c1c(CS(=O)(=O)CCO)[n+]([O-])c2ccccc2[n+]1[O-] (centres unmarked) [NHCHEtCH2 OH; SO2 CH2 CH2 OH; H]	80%	0%	3.12 µg/mL (≈ 7.82 µM)	200 µg/mL (≈ 501 µM)	10%
CCCCNC(=O)c1c(CS(=O)(=O)CCO)[n+]([O-])c2ccccc2[n+]1[O-] [NHBu; SO2 CH2 CH2 OH; H]	40%	0%	1.56 µg/mL (≈ 4.07 µM)	25 µg/mL (≈ 65.2 µM)	40%
CCCCNC(=O)c1c(CSCCO)[n+]([O-])c2ccccc2[n+]1[O-] [NHBu; SCH2 CH2 OH; H]	10%	20%	50 µg/mL (≈ 142 µM)	50 µg/mL (≈ 142 µM)	0%
COCCNC(=O)c1c(CS(=O)(=O)CCO)[n+]([O-])c2ccccc2[n+]1[O-] [NHCH2 CH2 OCH3; SO2 CH2 CH2 OH; H]	0%	40%	0.781 µg/mL (≈ 2.03 µM)	12.5 µg/mL (≈ 32.4 µM)	0%
O=C(NCCO)c1c(CS(=O)(=O)CCCN2CCCCC2)[n+]([O-])c2ccccc2[n+]1[O-] [NHCH2 CH2 OH; drawing 22; H]	20%	100%	50 µg/mL (≈ 110 µM)	25 µg/mL (≈ 55.2 µM)	20%
O=C(NCC(O)CO)c1c(CS(=O)(=O)CCO)[n+]([O-])c2ccccc2[n+]1[O-] (centres unmarked) [NHCH2 CHOHCH2 OH; SO2 CH2 CH2 OH; H]	70%	40%	6.25 µg/mL (≈ 15.6 µM)	200 µg/mL (≈ 498 µM)	0%
